Laboratory results published in ChEMBL document CHEMBL1155421, “Evaluation of a 4-aminopiperidine replacement in several series of CCR5 antagonists” (Bioorg Med Chem Lett, 2010).

What was measured:
[1] = biological target: C-C chemokine receptor type 5 (Homo sapiens, UniProt P51681); assay: Displacement of […] from CCR5 receptor receptors expressed in CHO cells; format: cell-based
[2] = test system: Human immunodeficiency virus 1; assay: Antiviral activity against HIV1 NLBal infected JC53BL cells assessed as inhibition of replication by luciferase reporter assay; format: functional, organism-based; conditions: Human immunodeficiency virus 1, NLBal

Sequence of C-C chemokine receptor type 5 (P51681 whole entry): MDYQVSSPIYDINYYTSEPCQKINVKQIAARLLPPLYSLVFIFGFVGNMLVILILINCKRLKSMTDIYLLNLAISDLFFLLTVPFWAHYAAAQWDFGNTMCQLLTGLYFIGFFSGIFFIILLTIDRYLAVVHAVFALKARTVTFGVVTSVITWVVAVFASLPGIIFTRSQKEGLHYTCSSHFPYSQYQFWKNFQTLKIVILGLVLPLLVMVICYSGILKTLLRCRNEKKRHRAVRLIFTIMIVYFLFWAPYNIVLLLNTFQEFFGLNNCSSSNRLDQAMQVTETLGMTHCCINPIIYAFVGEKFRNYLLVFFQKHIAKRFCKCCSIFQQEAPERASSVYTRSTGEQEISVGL

Row | SMILES | IC50 [1] [µM] | IC50 [2] [µM]
1 | CCO[C@H]1Cc2cc(C(F)(F)F)ccc2[C@@H]1N1CCN(C2C[C@@H]3CN(C(=O)c4c(C)ccnc4C)C[C@@H]3C2)C[C@@H]1C (some centres undefined) | 0.098 | 0.357
2 | CCO[C@H]1Cc2cc(C(F)(F)F)ccc2[C@@H]1N1CCN(C2C[C@@H]3CN(C(=O)c4c(C)cc(C#N)nc4C)C[C@@H]3C2)C[C@@H]1C (some centres undefined) | 0.045 | 0.059
3 | COC[C@@H](c1ccc(C(F)(F)F)cc1)N1CCN(C2C[C@@H]3CN(C(=O)c4c(C)cc(C#N)nc4C)C[C@@H]3C2)C[C@@H]1C (some centres undefined) | > 0.5 | > 0.625
4 | COC[C@@H](c1ccc(C(F)(F)F)cc1)N1CCN(C2C[C@@H]3CN(C(=O)c4c(C)ncnc4C)C[C@@H]3C2)C[C@@H]1C (some centres undefined) | > 0.5 | > 0.625
5 | CCCC[C@H]1CN(C[C@H]2CC[C@H](OCC)CC2)C(=O)OC12CCN(C1C[C@@H]3CN(C(=O)c4c(C)ncnc4C)C[C@@H]3C1)CC2 (some centres undefined) | 0.044 | 0.019
6 | COC[C@@H](c1ccc(C(F)(F)F)cc1)N1CCN(C2C[C@@H]3CN(C(=O)c4c(C)ccnc4C)C[C@@H]3C2)C[C@@H]1C (some centres undefined) | > 0.5 | > 0.625
7 | CCO[C@H]1Cc2cc(C(F)(F)F)ccc2[C@@H]1N1CCN(C2C[C@@H]3CN(C(=O)c4c(C)ncnc4C)C[C@@H]3C2)C[C@@H]1C (some centres undefined) | 0.092 | > 0.625
8 | CCCC[C@H]1CN(CC2CCOCC2)C(=O)OC12CCN(C1(C)C[C@H]3CN(C(=O)c4c(C)cc(C#N)nc4C)C[C@H]3C1)CC2 (some centres undefined) | 0.061 | 0.018

Compounds with a lower IC50 [1], results first:

Row | IC50 [1] [µM] | IC50 [2] [µM] | SMILES
9 | 0.023 | 0.012 | CCCC[C@H]1CN(C[C@H]2CC[C@H](OC(C)C)CC2)C(=O)OC12CCN(C1C[C@@H]3CN(C(=O)c4c(C)ncnc4C)C[C@@H]3C1)CC2 (some centres undefined)
10 | 0.014 | 0.262 | CCCC[C@H]1CN(CC2CCOCC2)C(=O)OC12CCN(C1C[C@@H]3CN(C(=O)c4c(C)ncnc4C)C[C@@H]3C1)CC2 (some centres undefined)
11 | 0.025 | ≥ 0.625 | CCCC[C@H]1CN(CC2CCOCC2)C(=O)OC12CCN(C1(C)C[C@H]3CN(C(=O)c4c(C)ncnc4C)C[C@H]3C1)CC2 (some centres undefined)
12 | 0.034 | 0.004 | CCCC[C@H]1CN(C[C@H]2CC[C@H](OCC)CC2)C(=O)OC12CCN(C1C[C@@H]3CN(C(=O)c4c(C)ccnc4C)C[C@@H]3C1)CC2 (some centres undefined)
13 | 0.027 | 0.012 | CCCC[C@H]1CN(C[C@H]2CC[C@H](OC3CC3)CC2)C(=O)OC12CCN(C1C[C@@H]3CN(C(=O)c4c(C)ncnc4C)C[C@@H]3C1)CC2 (some centres undefined)
14 | 0.004 | – | CCCC[C@H]1CN(CC2CCOCC2)C(=O)OC12CCN(C1(C)CCN(C(=O)c3c(C)ncnc3C)CC1)CC2
15 | 0.015 | 0.009 | CCCC[C@H]1CN(CC2CCOCC2)C(=O)OC12CCN(C1C[C@@H]3CN(C(=O)c4c(C)cc(C#N)nc4C)C[C@@H]3C1)CC2 (some centres undefined)
